According to publication PMC9972480, “Synthesis of Quinoline and Dihydroquinoline Embelin Derivatives as Cardioprotective Agents” (Journal of Natural Products, 2023):

Experiments:
[1] = MTT cell viability assay (cytotoxicity) in J774 macrophages; format: cell-based, murine; settings: mouse
Experimental: (§1) The potential cytotoxicity of embelin (1) together with derivatives (4a–4m, 5a–5d, 6a–6m) was tested in cardiomyocytes and macrophages in order to ensure that compounds lack toxicity also in immune cells. Cell viability was determined by the MTT assay.[58] Four dihydroquinoline derivatives (4b, 4f, 4i, and 4m) and six quinoline compounds (6a, 6d, 6e, 6i, 6k, and 6m) maintained higher viable cell rates in both types of cells. IC50 values of these derivatives were higher than 40 μM and were selected for further analysis.
(§2) J774A.1 murine macrophage cells, H9c2 embryonic rat heart-derived cells, and MCF-7 breast cancer cells were purchased from American Type Cell Culture (ATCC, Manassas, VA, USA). Cells were cultured in Dulbecco’s modified Eagle medium with 10% fetal bovine serum and 1% penicillin/streptomycin (Lonza) and were maintained at 37 °C in a humidified incubator containing 5% CO2.
(§3) Cell viability was assessed by conducting an MTT [3-(4,5-dimethylthiazol-2-yl)-2,5-diphenyltetrazolium bromide dye] assay. Briefly, J 774A.1, H9c2, and MCF7 cells were seeded in 96-well plates for 24 h. Then, cells were treated with DOX in the absence or presence of compounds. MTT (Sigma) reagent was added to the medium for 1 h at 37 °C. Then, the formazan was dissolved in dimethyl sulfoxide (DMSO, 100 μL). Absorbance was measured at 540 nm with a microplate reader (BMG Labtech).

[2] = MTT cell viability assay (cytotoxicity) in H9c2 cardiomyocytes; format: cell-based, rat; settings: rat, H9c2 cardiomyocytes, 24 h, MTT; for viability at 24 h, 10 µM / viability at 24 h, 20 µM: mean ± SD, n = 3; for IC50 at 24 h: H9c2 cardiomyocytes (embryonic heart-derived cells), stated for both types of cells
Experimental: as §1, §2, §3

melting point | SMILES | viability at 24 h, 10 µM [1] | viability at 24 h, 20 µM [1] | viability at 24 h, 10 µM [2] | viability at 24 h, 20 µM [2] | IC50 at 24 h [1] | IC50 at 24 h [2] | viability at 24 h, 10 µM ([1]; J774 macrophages, 10 μM, 24 h, MTT, mean ± SD, n = 3, read-out: Cell viability (%) J774 macrophages 10 μM) | viability at 24 h, 20 µM ([1]; J774 macrophages, 20 μM, 24 h, MTT, mean ± SD, n = 3, read-out: Cell viability (%) J774 macrophages 20 μM)
 | CCCCCCCCCCCC1=C(O)C(=O)c2c(nc3ccccc3c2-c2ccsc2)C1=O [Compound 6h, 2-Hydroxy-9-(thiophen-3-yl)-3-undecylacridine-1,4-dione] | 73.5 ± 2.8% | 56.7 ± 3.3% | 75.3 ± 5% | 71.1 ± 2.8% |  |  |  | 
 | CCCCCCCCCCCC1=C(O)C(=O)c2c(nc3ccccc3c2-c2ccccc2)C1=O [Compound 6b, 2-Hydroxy-9-phenyl-3-undecylacridine-1,4-dione] | 81.8 ± 4.7% | 63.9 ± 6.6% | 99.7 ± 2.1% | 68.1 ± 4.6% |  |  |  | 
 | CCCCCCCCCCCC1=C(O)C(=O)C=C(Nc2cccc([N+](=O)[O-])c2)C1=O [Compound 5d, 2-Hydroxy-5-((3-nitrophenyl)amino)-3-undecylcyclohexa-2,5-diene-1,4-dione] | 65.5 ± 1.9% | 50.8 ± 7% | 67.8 ± 2.1% | 57.5 ± 1.4% |  |  |  | 
 | CCCCCCCCCCCC1=C(O)C(=O)c2c(nc3ccccc3c2-c2ccc(C)c(C)c2)C1=O [Compound 6i, 2-Hydroxy-9-(3,4-dimethylphenyl)-3-undecylacridine-1,4-dione] | 93.3 ± 4.3% | 75.1 ± 2.9% | 99.8 ± 3% | 92.6 ± 5.4% | > 40 µM | > 40 µM |  | 
146 to 148 °C | CCCCCCCCCCCC1=C(O)C(=O)C2=C(Nc3ccccc3C2c2ccc(C(=O)OC)cc2)C1=O (stereo not shown) [Compound 4g, Methyl 4-(2-hydroxy-1,4-dioxo-3-undecyl-1,4,9,10-tetrahydroacridin-9-yl)benzoate] | 31.2 ± 5.3% | 29.6 ± 3.9% | 72.6 ± 1.1% | 62.1 ± 1.3% |  |  |  | 
139 to 141 °C | CCCCCCCCCCCC1=C(O)C(=O)C2=C(Nc3ccccc3C2c2ccc(Cl)cc2)C1=O (stereo not shown) [Compound 4c, 2-Hydroxy-9-(4-chlorophenyl)-3-undecyl-9,10-dihydroacridine-1,4-dione] | 49.1 ± 3.4% | 39.5 ± 3.6% | 98.9 ± 3.4% | 93.9 ± 2.3% |  |  |  | 
 | CCCCCCCCCCCC1=C(O)C(=O)c2c(nc3ccccc3c2-c2ccc(Cl)cc2)C1=O [Compound 6c, 2-Hydroxy-9-(4-chlorophenyl)-3-undecylacridine-1,4-dione] | 83.4 ± 0.5% | 55.8 ± 5.7% | 95 ± 8.4% | 74.3 ± 4.8% |  |  |  | 
152 to 154 °C | CCCCCCCCCCCC1=C(O)C(=O)C2=C(Nc3ccccc3C2c2ccc(OC)c(OC)c2)C1=O (stereo not shown) [Compound 4j, 2-Hydroxy-9-(3,4-dimethoxyphenyl)-3-undecyl-9,10-dihydroacridine-1,4-dione] | 89.1 ± 5.5% | 36.9 ± 3.8% | 68.9 ± 3.6% | 60.6 ± 4.9% |  |  |  | 
139 to 140 °C | CCCCCCCCCCCC1=C(O)C(=O)C2=C(Nc3ccccc3C2c2ccc(Br)cc2)C1=O (stereo not shown) [Compound 4d, 2-Hydroxy-9-(4-bromophenyl)-3-undecyl-9,10-dihydroacridine-1,4-dione] | 38.5 ± 5.9% | 32.9 ± 3.4% | 99.5 ± 2.7% | 98.9 ± 6.1% |  |  |  | 
 | CCCCCCCCCCCC1=C(O)C(=O)c2c(nc3ccccc3c2-c2ccc(C(=O)OC)cc2)C1=O [Compound 6g, Methyl 4-(2-hydroxy-1,4-dioxo-3-undecyl-1,4-dihydroacridin-9-yl)benzoate] | 78.4 ± 5.7% | 42.2 ± 0.3% | 88.7 ± 10.4% | 70.6 ± 3% |  |  |  | 
 | CCCCCCCCCCCC1=C(O)C(=O)C=C(Nc2ccccc2)C1=O [Compound 5a, 2-Hydroxy-5-(phenylamino)-3-undecylcyclohexa-2,5-diene-1,4-dione] | 56.9 ± 4% | 56.2 ± 2% | 99 ± 7.1% | 83 ± 7% |  |  |  | 
260 to 262 °C | CCCCCCCCCCCC1=C(O)C(=O)C2=C(Nc3cc(C)cc(C)c3C2c2ccc([N+](=O)[O-])cc2)C1=O (stereo not shown) [Compound 4l, 2-Hydroxy-6,8-dimethyl-9-(4-nitrophenyl)-3-undecyl-9,10-dihydroacridine-1,4-dione] | 46.7 ± 6.6% | 33.1 ± 4.5% | 98.2 ± 6.6% | 88.3 ± 6.1% |  |  |  | 
140 to 142 °C | CCCCCCCCCCCC1=C(O)C(=O)C2=C(Nc3ccccc3C2c2ccc(F)cc2)C1=O (stereo not shown) [Compound 4e, 2-Hydroxy-9-(4-fluorophenyl)-3-undecyl-9,10-dihydroacridine-1,4-dione] | 57.3 ± 3.8% | 44.6 ± 3.3% | 93.4 ± 7.2% | 83.7 ± 1.5% |  |  |  | 
 | CCCCCCCCCCCC1=C(O)C(=O)c2c(nc3ccccc3c2-c2ccc(OC)c(OC)c2)C1=O [Compound 6j, 2-Hydroxy-9-(3,4-dimethoxyphenyl)-3-undecylacridine-1,4-dione] | 85.2 ± 3.7% | 64 ± 2.6% | 85.5 ± 6.2% | 68.4 ± 8.6% |  |  |  | 
 | CCCCCCCCCCCC1=C(O)C(=O)C=C(Nc2ccc(OC)cc2)C1=O [Compound 5b, 2-Hydroxy-5-((4-methoxyphenyl)amino)-3-undecylcyclohexa-2,5-diene-1,4-dione] | 68.4 ± 3.8% | 48.3 ± 1.7% | 89.3 ± 9.2% | 87.4 ± 6.7% |  |  |  | 
 | CCCCCCCCCCCC1=C(O)C(=O)c2c(nc3ccccc3c2-c2cccc(F)c2)C1=O [Compound 6f, 2-Hydroxy-9-(3-fluorophenyl)-3-undecylacridine-1,4-dione] | 79.3 ± 4.6% | 62.2 ± 4.3% | 98.3 ± 4.9% | 84.5 ± 4.3% |  |  |  | 
164 to 166 °C | CCCCCCCCCCCC1=C(O)C(=O)C2=C(Nc3ccccc3C2c2ccc([N+](=O)[O-])cc2)C1=O (stereo not shown) [Compound 4a, 2-Hydroxy-9-(4-nitrophenyl)-3-undecyl-9,10-dihydroacridine-1,4-dione] | 50 ± 5.6% | 43.7 ± 2% | 94.8 ± 3.5% | 89.4 ± 0.6% |  |  |  | 
 | CCCCCCCCCCCC1=C(O)C(=O)c2c(nc3ccccc3c2-c2ccc(F)cc2)C1=O [Compound 6e, 2-Hydroxy-9-(4-fluorophenyl)-3-undecylacridine-1,4-dione] | 93.1 ± 4.5% | 76.6 ± 5.9% | 96.7 ± 8.1% | 93.9 ± 0.9% | > 40 µM | > 40 µM |  | 
240 to 242 °C | CCCCCCCCCCCC1=C(O)C(=O)C2=C(Nc3ccccc3C2c2cccc(F)c2)C1=O (stereo not shown) [Compound 4f, 2-Hydroxy-9-(3-fluorophenyl)-3-undecyl-9,10-dihydroacridine-1,4-dione] | 99.5 ± 1.3% | 97.8 ± 0.6% | 88.7 ± 5.3% | 81.1 ± 2.9% | > 40 µM | > 40 µM |  | 
190 to 192 °C | CCCCCCCCCCCC1=C(O)C(=O)C2=C(Nc3ccccc3C2c2ccsc2)C1=O (stereo not shown) [Compound 4h, 2-Hydroxy-9-(thiophen-3-yl)-3-undecyl-9,10-dihydroacridine-1,4-dione] | 84.9 ± 2.6% | 51.4 ± 2.9% | 92.5 ± 6.6% | 75.8 ± 2.3% |  |  |  | 
153 to 155 °C | CCCCCCCCCCCC1=C(O)C(=O)C2=C(Nc3ccc(OC)cc3C2c2ccc([N+](=O)[O-])cc2)C1=O (stereo not shown) [Compound 4k, 2-Hydroxy-7-methoxy-9-(4-nitrophenyl)-3-undecyl-9,10-dihydroacridine-1,4-dione] | 55.6 ± 6.7% | 37.8 ± 4.8% | 99.7 ± 1.1% | 90.7 ± 1.5% |  |  |  | 
 | CCCCCCCCCCCC1=C(O)C(=O)C=C(Nc2ccc(Br)cc2)C1=O [Compound 5c, 5-((4-Bromophenyl)amino)-2-hydroxy-3-undecylcyclohexa-2,5-diene-1,4-dione] | 56.9 ± 5.5% | 39.4 ± 5.3% | 61.9 ± 2.7% | 56.1 ± 3.4% |  |  |  | 
 | CCCCCCCCCCCC1=C(O)C(=O)c2c(nc3cc(C)cc(C)c3c2-c2ccc([N+](=O)[O-])cc2)C1=O [Compound 6l, 2-Hydroxy-6,8-dimethyl-9-(4-nitrophenyl)-3-undecylacridine-1,4-dione] | 82.3 ± 0.3% | 63.8 ± 4.8% | 64.8 ± 6.7% | 55.9 ± 9.4% |  |  |  | 
 | CCCCCCCCCCCC1=C(O)C(=O)C=C(O)C1=O [Compound 1, embelin] |  |  | 36.9 ± 5.8% | 8.3 ± 0.1% |  |  | 21.3 ± 2.7% | 15.3 ± 0.8%
